According to patent US8980851B2, “Methods for bone treatment by modulating an arachidonic acid metabolic or signaling pathway” (Accelalox, Inc., priority 2005, dated 2015):
Where two headings read alike, the source gives them in different places.

Tests used:
mouse calvaria = details: in vitro organ culture; cited from earlier work
[1] = tested on: fetal rat calvaria (osteoblast) cells; details: in vitro; cited from earlier work
closed femur fracture [2] = experiment: Rat closed femur fracture healing, radiographs (Example 4); format: in vivo, Sprague-Dawley rats; details: treated rats vs untreated rats
Protocol: (§1) Sprague-Dawley rats (3 months old) underwent a standard closed femur fracture procedure as described in the art (Simon et al. Journal of Bone and Mineral Research, 17(6): 963-976 (2002); Bonnarens and Einhorn, Production of a standard closed fracture in laboratory animal bone. Journal of Orthopaedic Research, 2: 97-101 (1984)). The impending fracture was stabilized with an intramedullary stainless steel pin. Beginning 4 hours after fracture the rats were treated with vehicle (1% methylcellulose) or inhibitors of 5-LO suspended in 1% methylcellulose Inhibitor A (NDGA) was administered at 30 mg/kg and Inhibitor B (AA-861) was administered at 5 mg/kg. The day after surgery and continuing until day 21 post-fracture, experimental rats were treated with 2 doses of inhibitor (either A or B), the first dose between […] and then again with another dose 8-10 hours later. Control rats were treated similarly but with carrier only (1% methylcellulose). Three weeks after fracture the rats were anesthetized and high resolution radiographs were made of the fractured femurs using a Packard Faxitron and Kodak MinR2000 mammography film (FIGS. 8A, 8B, and 8C). Five weeks after fracture the rats were sacrificed, femurs resected, and assayed for structural mechanical properties by torsional mechanical testing (FIG. 8D).

closed femur fracture [3] = experiment: Torsional mechanical testing of fractured rat femurs (Example 4); format: in vivo, Sprague-Dawley rats; details: 5 weeks of healing; for greater peak torque than vehicle treated rats: Inhibitor A 30 mg/kg, Inhibitor B 5 mg/kg, 2 doses daily until day 21; for mode of femur failure in torsional testing (boney union vs non-union): all femurs, vehicle 13% (2 of 15) non-unions
Protocol: as §1
Torsional mechanical testing was used to measure the peak torque sustained by each femur after 5 weeks of healing.

Saos-2 cells = details: cited from earlier work
G292 cells = details: cited from earlier work
[4] = tested on: primary rat calvaria (osteoblast) cultures; details: in vitro; cited from earlier work
[5] = higher concentration (0.3-1 micromolar)

Molecule	BMP2 induced increase in mouse calvaria thickness (mouse calvaria)	alkaline phosphatase activity [1]	bone nodule formation [1]	osteogenesis / fracture healing (FIG. 8, x-rays) (closed femur fracture [2])	greater peak torque than vehicle treated rats (closed femur fracture [3]) [%]	mode of femur failure in torsional testing (boney union vs non-union) (closed femur fracture [3])	proliferation of Saos-2 cells (Saos-2 cells; concentration not given)	proliferation of primary rat osteoblast cultures [4]	other results
5-hydroxyeicosatetraenoic acid [Inhibitor 5-HETE]	prevented	reduce	reduce	–	–	–	–	–	–
CC(Cc1ccc(O)c(O)c1)C(C)Cc1ccc(O)c(O)c1 (stereo not drawn) [Inhibitor A, nordihydroguaiaretic acid]	–	–	–	accelerated	22	failed as boney unions	–	–	–
CC1=C(C)C(=O)C(CCCCC#CCCCC#CCO)=C(C)C1=O [Inhibitor B, 2-(12-hydroxydodeca-5,10-diynyl)-3,5,6-trimethyl-1,4-benzoquinone]	–	–	–	accelerated	53	failed as boney unions	no effect	–	–
CCCCC/C=C\C[C@@H](O)/C=C/C=C/C=C\[C@@H](O)CCCC(=O)O [LTB4]	prevented	reduce	reduce	–	–	–	–	reduces proliferation	proliferation of Saos-2 cells (Saos-2 cells; [5]): promote proliferation; proliferation of G292 cells (G292 cells; [5]): promote proliferation
CCCCC/C=C\C\C=C/C=C/C=C/[C@@H](SC[C@H](NC(=O)CC[C@H](N)C(=O)O)C(=O)NCC(=O)O)[C@@H](O)CCCC(=O)O [LTC4]	–	–	–	–	–	–	no effect	no effect	proliferation of G292 cells (G292 cells; concentration not given): promote proliferation
CCCCC/C=C\C\C=C/C=C/C=C/[C@@H](SC[C@H](N)C(=O)NCC(=O)O)[C@@H](O)CCCC(=O)O [LTD4]	–	no effect	no effect	–	–	–	–	–	–
